Reference: ChEMBL document CHEMBL2074248, “Regulation of biliary drug efflux pump expression by hormones and xenobiotics” (Toxicology, 2001)

Legend:
[1] = biological target: T1, Bile salt export pump (Rattus norvegicus, UniProt O70127); test: TP_TRANSPORTER: Northern blot from primary hepatocytes; assay type: functional, cell-based, Sprague-Dawley, Hepatocyte
T1 sequence (O70127 whole entry): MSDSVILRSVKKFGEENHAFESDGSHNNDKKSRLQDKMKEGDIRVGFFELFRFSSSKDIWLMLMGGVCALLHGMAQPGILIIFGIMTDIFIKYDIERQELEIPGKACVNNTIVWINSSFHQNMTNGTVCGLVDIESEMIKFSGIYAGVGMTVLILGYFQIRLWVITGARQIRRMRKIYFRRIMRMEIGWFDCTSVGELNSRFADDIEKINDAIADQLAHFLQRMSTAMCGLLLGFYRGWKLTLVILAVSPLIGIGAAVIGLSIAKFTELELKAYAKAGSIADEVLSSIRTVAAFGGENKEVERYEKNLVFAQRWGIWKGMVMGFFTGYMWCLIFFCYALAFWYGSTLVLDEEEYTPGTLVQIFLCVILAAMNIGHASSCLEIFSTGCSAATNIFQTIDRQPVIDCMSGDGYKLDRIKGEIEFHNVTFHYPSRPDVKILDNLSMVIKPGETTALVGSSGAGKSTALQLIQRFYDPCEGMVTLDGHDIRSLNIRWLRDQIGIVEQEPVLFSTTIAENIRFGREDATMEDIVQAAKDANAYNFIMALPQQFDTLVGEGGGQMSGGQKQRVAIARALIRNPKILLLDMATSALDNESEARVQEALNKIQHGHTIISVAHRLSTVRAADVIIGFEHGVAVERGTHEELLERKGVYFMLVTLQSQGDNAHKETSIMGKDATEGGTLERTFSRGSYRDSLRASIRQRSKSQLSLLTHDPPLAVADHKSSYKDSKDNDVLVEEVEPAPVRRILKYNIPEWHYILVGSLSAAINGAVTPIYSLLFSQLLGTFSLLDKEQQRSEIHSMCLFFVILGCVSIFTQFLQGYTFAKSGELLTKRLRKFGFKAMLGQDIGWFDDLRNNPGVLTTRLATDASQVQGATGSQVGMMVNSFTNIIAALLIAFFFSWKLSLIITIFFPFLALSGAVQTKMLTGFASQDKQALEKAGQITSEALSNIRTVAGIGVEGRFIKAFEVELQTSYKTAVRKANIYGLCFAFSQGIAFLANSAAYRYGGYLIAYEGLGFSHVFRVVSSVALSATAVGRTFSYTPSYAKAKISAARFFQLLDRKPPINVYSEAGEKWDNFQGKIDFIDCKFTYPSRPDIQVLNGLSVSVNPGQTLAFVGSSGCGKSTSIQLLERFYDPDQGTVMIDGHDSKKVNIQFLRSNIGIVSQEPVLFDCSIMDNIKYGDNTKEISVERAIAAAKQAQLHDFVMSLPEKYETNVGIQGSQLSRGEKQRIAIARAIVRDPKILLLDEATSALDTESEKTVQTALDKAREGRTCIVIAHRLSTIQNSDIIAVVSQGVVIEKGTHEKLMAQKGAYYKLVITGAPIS

[2] = biological target: T1, Bile salt export pump; test: TP_TRANSPORTER: Northern blot in vivo rat; assay type: functional, organism-based, Liver

Activity [1]: inducer [+]
Activity [2]: inducer [+]
SMILES: C[C@@H]1C[C@H]2[C@@H]3CCC4=CC(=O)C=C[C@]4(C)[C@@]3(F)[C@@H](O)C[C@]2(C)[C@@]1(O)C(=O)CO [DEXAMETHASONE]
